The results in this text go back to US20220062205A1, “TREATMENT OF GASTROINTESTINAL DISORDERS AND SYMPTOMS THEREOF” (Indiana University Research and Technology Corporation, priority 2018, published 2022).

Assay [1] concerns Winnie mice. Nature of the assay: Immunohistochemistry and histology of distal colon (cross sections and LMMP). Type of assay: in vivo, mouse. As for the experimental part: The small molecular APE1/Ref-1 antagonist; APX3330, was administered via IP injections in Winnie mice at a dose of 25 mg/kg (30 G needle, max volume 200 μl) dissolved in Cremphore (2%) (Sigma-Aldrich): Ethanol (2%) in sterile water (96%). Mice received alternating IP injections twice a day with 12-hour intervals, over the course of two weeks during predominate intestinal inflammation. Winnie-sham treated mice received vehicle injections excluding APX3330 drugs. All mice were monitored, weighed and faecal pellets were collected over the course of treatment.
Distal colon tissues were harvested in oxygenated physiological saline, flushed of faecal content and cut along the mesenteric border. Tissues were pinned down with mucosal side upwards in a Slygard-lined petri dish and were briefly fixed with Zamboni's fixative (2% formaldehyde containing 0.2% picric acid) over night at 4° C. Zamboni's fixative was removed by a serial of washes (3×10 minutes) with dimethyl sulfoxide (DMSO) (Sigma-Aldrich, Sydney, Australia) followed by (3×10 minutes) with 1× phosphate buffered solution (PBS). Tissues were processed for cross sections wholemount longitudinal muscle-myenteric preparations (LMMP). For histological staining, β-tubulin III and α-Smooth muscle actin (SMA) labelling distal colon tissues were pinned and fixed as above without stretching and stored in 50:50 optimum cutting temperature (OCT) compound (Tissue Tek, CA, USA) and frozen in liquid nitrogen-cooled isopentane and OCT and stored at −80° C. until cryo-sectioned (20 μm) onto glass slides for immunohistochemistry (IHC). For immunolabeling glial fibrillary acidic protein (GFAP), microtubule associated protein-2 (MAP2), HMGB1 and APE1, the distal colon LMMPs were stretched to maximum capacity without tearing in Slygard-lined petri dishes and were subjected to fixation and washes as above. To expose the myenteric plexus, removal of mucosa, submucosa and circular muscle was performed prior to IHC.
Immunohistochemistry (IHC) was completed. Specimens were subjected to a one hour incubation at room temperature with 10% normalised donkey serum (NDS) (Merck Millipore, Australia) prior to labelling with primary antibodies (Table 2) in distal colon cross sections and LMMPs. Sections and preparation were washed with 1×PBS (3×10 minutes) and then briefly incubated with fluorophore-conjugated secondary antibodies (Table 2). All specimens were stained with 4′,6′-diamindino-2-pheylindole dihydrochloride (DAPI) to identify immunoreactive cells. Tissues were mounted on glass slides with fluorescent mounting medium (DAKO, North, Sydney, NSW, Australia Tissues for histology were cryo-sectioned at 10 μm, cleared and rehydrated in graded ethanol concentration. For standard hematoxylin and eosin stain (H&E) and Alcian blue stain, sections were immersed in histolene (3×4 minutes), 100% ethanol (2 minutes), 95% ethanol (2 minutes), 70% ethanol (2 minutes), rinsed in tap water (30 seconds), then in hematoxylin (Sigma-Aldrich) (1 minute) or Alcian blue (Sigma-Aldrich) (30 minutes), rinsed in tap water, immersed in Scott's tap water (1 minute) and eosin (Sigma-Aldrich) (5 minutes), rinsed in tap water, immersed in 100% ethanol (2×1 minute) and histolene (4 minutes) and finally mounted on glass slides with DPX mountant. A histological grading system evaluated gross morphological damage on constraints inclusive of mucosal flattening (0=normal, 3=severe flattening), manifestations of haemorrhagic sites (0=none, 3=frequent), damage or distortion to circular muscle (0=normal, 3=substantial thickening and disorganization of muscle layer) and loss to goblet cells (0=none, 3=depleted cells). All slides were coded, and analysis was performed blindly.
Confocal microscopy (Nikon Eclipse Ti multichannel confocal laser scanning system, Nikon, Japan) acquired immunolabelled sections. […]

In assay [2] the test system is Winnie mice. Kind of assay: Superoxide production in the myenteric plexus (MitoSOX Red). The assay is classed as in vivo, mouse. The following applies: distal colon myenteric plexus; mean±SEM, n=4. As for the experimental part:
The small molecular APE1/Ref-1 antagonist; APX3330, was administered via IP injections in Winnie mice at a dose of 25 mg/kg (30 G needle, max volume 200 μl) dissolved in Cremphore (2%) (Sigma-Aldrich): Ethanol (2%) in sterile water (96%). Mice received alternating IP injections twice a day with 12-hour intervals, over the course of two weeks during predominate intestinal inflammation. Winnie-sham treated mice received vehicle injections excluding APX3330 drugs. All mice were monitored, weighed and faecal pellets were collected over the course of treatment. MITOSOX™ Red M36008 (Invitrogen, Australia), acquired mitochondrial-derived production of superoxide in the myenteric ganglia. Briefly, distal colon preparations from control C57BL/6, Winnie-sham treated and Winnie-APX3330 treated mice freshly excised to expose the myenteric plexus. Samples were incubated at 37° C. for 40 minutes with 5 μM MITOSOX™ Red M36008. Tissues were washed with oxygenated physiological saline and fixed with Zamboni's fixative for 1-hour followed by (3×10 minute) 1×PBS washes. Prepared tissues were mounted on glass slides with DAKO fluorescent a mounting medium for imaging Images were captured as previously described above. Images were converted into binary and changes in fluorescence were measured in arbitrary units (arb. Units) relative to ganglion area using ImageJ software (National Institute of Health).

The mark [3] stands for this setting: LMMP distal colon, mean±SEM, n=6.
The mark [4] stands for this setting: distal colon cross sections, mean±SEM, n=5.

For the molecule `CCCCCCCCCC(=CC1=C(C)C(=O)C(OC)=C(OC)C1=O)C(=O)O` [APX3330], in assay [1] (Alcian blue, distal colon mucosa, mean±SEM, n=4), the goblet cell density amounted to 46.5±4.3%. In addition, the histological grading in assay [1] (H&E / Alcian blue colon cross sections, mean±SEM, n=5) was determined as 4.8±0.7. Further, the “APE1 intensity (immunoreactivity density) in the myenteric ganglia” value in assay [1] (LMMP colon, mean±SEM, n=4) is 6.0±1.4%. Moreover, in assay [1] (setting [3]), the “expression of Oxo-8dG-IR (oxidative DNA damage) in myenteric ganglia” value was 2.0±0.9% and the “number of myenteric neurons IR for Oxo-8dG” value is 0.9±0.7. The “number of APE1-IR cells” value in assay [1] (LMMP, compared to control C57BL/6 and Winnie-sham (P<0.01)) is on record as “significantly decreased”. In addition, the “gross morphology of the colon (H&E stain)” value in assay [1] (colon cross sections of treated Winnie mice) is “attenuate damage to the colon”. In addition, in assay [1] (distal colon cross sections, circular muscle, mean±SEM, n=5), the “size of α-SMA-immunoreactive smooth muscle cells to nuclear size” value is 75.7±6.4%. Further, in assay [1] (setting [4]), the “number of α-SMA-IR smooth muscle cells within the circular muscle” value is listed as 45.2±3.1 and the “β-tubulin (III)-IR nerve fibre density” value is given as 13.3±0.8. For the same molecule, in assay [1] (myenteric ganglia, LMMP distal colon, mean±SEM, n=7), the “proportional number of MAP2-IR myenteric neurons” value amounted to 31.9±2.2%. For the same molecule, the “number of cells with HMGB1 translocation into the cytosol” value in assay [1] (myenteric ganglia, LMMP, mean±SEM, n=4) worked out at 0.9±0.3. In assay [1] (myenteric plexus, LMMP distal colon, mean±SEM, n=4), the “GFAP-IR glial cell density relative to ganglion area” value came to 64.2±8.8%. Also, the “MitoSOX fluorescence (superoxide production) relative to ganglion area” value in assay [2] is listed as 19.2±7.5%.
